Where two headings read alike, the source gives them in different places.

In test [1] the target is T1, form A of monoamine oxydase (Rattus norvegicus, UniProt P21396).
T1 construct: monoamine oxydase in rat brain tissue; from tissue; host or cells: homogenized entire brain of male Sprague-Dawley rat
T1 sequence (P21396 1-526): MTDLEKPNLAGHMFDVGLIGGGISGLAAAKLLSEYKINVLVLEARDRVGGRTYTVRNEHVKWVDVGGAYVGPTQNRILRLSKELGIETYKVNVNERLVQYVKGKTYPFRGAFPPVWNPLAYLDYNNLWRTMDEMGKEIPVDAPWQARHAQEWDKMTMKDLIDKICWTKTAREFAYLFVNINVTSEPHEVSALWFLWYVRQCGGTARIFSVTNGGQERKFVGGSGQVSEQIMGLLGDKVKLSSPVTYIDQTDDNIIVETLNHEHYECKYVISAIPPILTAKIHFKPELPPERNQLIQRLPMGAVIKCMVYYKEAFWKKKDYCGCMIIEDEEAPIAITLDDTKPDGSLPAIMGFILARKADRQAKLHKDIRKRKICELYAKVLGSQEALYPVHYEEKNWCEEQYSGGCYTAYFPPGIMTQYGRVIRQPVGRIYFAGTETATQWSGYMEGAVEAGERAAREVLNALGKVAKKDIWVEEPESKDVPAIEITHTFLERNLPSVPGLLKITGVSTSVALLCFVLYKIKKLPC
Put plainly: in vitro inhibition of monoamine oxydase form A (homogenized rat brain, (14C) serotonine substrate). The class given is biochemical, rat (male Sprague-Dawley, entire brain). As to conditions: rat brain homogenate. The method, then:
Pharmacol., 1983, 35, 161-165.
(§1) Inhibition constants KIA and KIB on forms A and B of mono-
(§2) amine oxydase (homogenized entire brain of a male rate
(§3) (Sprague-Dawley): 1 g of tissue to 16 ml of phosphate
(§4) The inhibition constants were calculated from the formula: KI =
CI50 /l + [S]/Km taking [S] = 48 μM for (^14 C)
serotonine and Km = 100 μM, or [S] = 12 μM for (^14 C)
phenylethylamine and Km = 6 μM
(§5) as the selective substrates for forms A and B respectively of monoamine oxydase.

Test [2] deals with T2, form B of monoamine oxydase (Rattus norvegicus, UniProt P19643).
T2 construct: monoamine oxydase in rat brain tissue; from tissue; host or cells: homogenized entire brain of male Sprague-Dawley rat
T2 sequence (P19643 1-520): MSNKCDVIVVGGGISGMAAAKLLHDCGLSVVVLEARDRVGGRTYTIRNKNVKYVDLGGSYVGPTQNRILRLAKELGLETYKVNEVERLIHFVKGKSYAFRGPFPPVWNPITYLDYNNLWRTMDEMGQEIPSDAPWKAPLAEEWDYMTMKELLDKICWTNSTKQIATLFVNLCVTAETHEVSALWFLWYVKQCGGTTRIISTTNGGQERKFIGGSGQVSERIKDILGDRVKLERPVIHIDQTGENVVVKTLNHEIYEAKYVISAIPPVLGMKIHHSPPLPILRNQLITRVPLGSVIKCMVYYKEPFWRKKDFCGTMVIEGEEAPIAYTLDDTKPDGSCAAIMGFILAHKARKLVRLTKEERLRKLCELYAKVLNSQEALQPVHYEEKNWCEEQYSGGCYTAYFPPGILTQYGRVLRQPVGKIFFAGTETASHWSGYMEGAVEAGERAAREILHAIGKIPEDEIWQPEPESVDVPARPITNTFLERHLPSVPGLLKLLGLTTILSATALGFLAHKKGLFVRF
Put plainly: in vitro inhibition of monoamine oxydase form B (homogenized rat brain, (14C) phenylethylamine substrate). It is filed as biochemical, rat (male Sprague-Dawley, entire brain). The conditions noted are these: for Ki: rat brain homogenate, pH 7.4, (14C) phenylethylamine; for KIA /KIB, after 20 min pre-incubation / KIA /KIB, no pre-incubation: selectivity ratio form A / form B. The method, then:
as §1, §2, §3, §4, §5

[3] abbreviates: after 20 min pre-incubation, pH 7.4, read-out: Inhibition constant KIA, after 20 min pre-incubation.
Where [4] appears, read: after 20 min pre-incubation, read-out: Inhibition constant KIB, after 20 min pre-incubation.
Where [5] appears, read: no pre-incubation, pH 7.4, read-out: Inhibition constant KIA, no pre-incubation.
[6] abbreviates: no pre-incubation, read-out: Inhibition constant KIB, no pre-incubation.

Consider `COCCCC(O)c1ccc(OCc2cccc(Cl)c2)cc1` (racemic) [compound 280190, [(chloro-3 phenylmethyloxy)-4 phenyl]-1 methoxy-4 butanol-1 (±)], for which the Ki was determined as 5430 nM in test [1] (setting [3]) and 79 nM in test [2] (setting [4]). Also, the “KIA /KIB, after 20 min pre-incubation” value in test [2] (after 20 min pre-incubation) was determined as 69.

For the compound `COC[C@H](O)COc1ccc(OCc2cccc(Cl)c2)cc1` [compound 280040, [(chloro-3 phenylmethyloxy)-4 phenoxy]-1 methoxy-3 propanol-2 S (+)], in test [1] (setting [3]), the Ki amounted to 1650 nM.

In the case of `COCC(COc1ccc(OCc2cccc(Cl)c2)cc1)OC` (racemic) [compound 200210], the Ki in test [1] (setting [3]) was over 1720 nM; in test [1] (setting [5]), over 1720 nM; in test [2] (setting [4]), 570 nM; in test [2] (setting [6]) it was 403 nM. In addition, the “KIA /KIB, after 20 min pre-incubation” value in test [2] (after 20 min pre-incubation) is recorded as over 3. The “KIA /KIB, no pre-incubation” value in test [2] (no pre-incubation) was over 4.

Take `COC(CO)COc1ccc(OCc2cccc(Cl)c2)cc1` (racemic) [compound 200213, [(chloro-3 phenylmethyloxy)-4 phenoxy]-3 methoxy-2 propanol-1 (±)]: the Ki was over 5170 nM in test [1] (setting [5]) and 543 nM in test [2] (setting [6]). Moreover, in test [2] (no pre-incubation), the “KIA /KIB, no pre-incubation” value is reported as over 9.5.

Turning to `OCCCCc1ccc(OCc2cccc(Cl)c2)cc1` [compound 200123], the values for the Ki in test [1] (setting [5]) and in test [2] (setting [6]) were over 1720 nM and 232 nM, respectively. Also, the “KIA /KIB, no pre-incubation” value in test [2] (no pre-incubation) is on record as over 7.
